# Measurements published in the kinase profiling compilation of Christmann-Franck et al. (2016).
# Columns and labels:
# Assay in all cases: KINOMEscan competition binding
# Details in all cases: compound 10.0 µM
# FLT1 (human) = FLT1 (human) (UniProt P17948)
# TEK (human) = TEK (human) (UniProt Q02763)
# PIM1 (human) = PIM1 (human) (UniProt P11309)
# STK36 (human) = STK36 (human) (UniProt Q9NRP7)
# RPS6KA5 KD1 (human) = RPS6KA5 KD1 (human) (UniProt O75582)
# PRKCE (human) = PRKCE (human) (UniProt Q02156)
# AKT1 (human) = AKT1 (human) (UniProt P31749)
# LIMK1 (human) = LIMK1 (human) (UniProt P53667)
# NEK2 (human) = NEK2 (human) (UniProt P51955)
# ULK1 (human) = ULK1 (human) (UniProt O75385)
# PIM2 (human) = PIM2 (human) (UniProt Q9P1W9)
# CSF1R (human) = CSF1R (human) (UniProt P07333)
# CSNK2A1 (human) = CSNK2A1 (human) (UniProt P68400)
# GAK (human) = GAK (human) (UniProt O14976)
# CDK17 (human) = CDK17 (human) (UniProt Q00537)
# MAPK7 (human) = MAPK7 (human) (UniProt Q13164)
# PRKCH (human) = PRKCH (human) (UniProt P24723)
# MKNK2 (human) = MKNK2 (human) (UniProt Q9HBH9)
# PKMYT1 (human) = PKMYT1 (human) (UniProt Q99640)
# NUAK1 (human) = NUAK1 (human) (UniProt O60285)
# TAOK1 (human) = TAOK1 (human) (UniProt Q7L7X3)
# PRKG2 (human) = PRKG2 (human) (UniProt Q13237)
# PIM3 (human) = PIM3 (human) (UniProt Q86V86)
# LTK (human) = LTK (human) (UniProt P29376)
# EPHA8 (human) = EPHA8 (human) (UniProt P29322)
# LCK (human) = LCK (human) (UniProt P06239)
# [1] = system: FLT3 (human), P36888 [ITD]
# CSNK2A2 (human) = CSNK2A2 (human) (UniProt P19784)
# NLK (human) = NLK (human) (UniProt Q9UBE8)
# PTK2 (human) = PTK2 (human) (UniProt Q05397)
# MAP3K7 (human) = MAP3K7 (human) (UniProt O43318)
# EPHB1 (human) = EPHB1 (human) (UniProt P54762)
# LYN (human) = LYN (human) (UniProt P07948)
# EPHB4 (human) = EPHB4 (human) (UniProt P54760)
# PAK3 (human) = PAK3 (human) (UniProt O75914)
# PAK7 (human) = PAK7 (human) (UniProt Q9P286)
# MAPK8 (human) = MAPK8 (human) (UniProt P45983)
# MAPK12 (human) = MAPK12 (human) (UniProt P53778)
# GSK3B (human) = GSK3B (human) (UniProt P49841)
# FES (human) = FES (human) (UniProt P07332)
# CAMK1D (human) = CAMK1D (human) (UniProt Q8IU85)
# Sequence of GAK (human) (O14976 whole entry, looked up): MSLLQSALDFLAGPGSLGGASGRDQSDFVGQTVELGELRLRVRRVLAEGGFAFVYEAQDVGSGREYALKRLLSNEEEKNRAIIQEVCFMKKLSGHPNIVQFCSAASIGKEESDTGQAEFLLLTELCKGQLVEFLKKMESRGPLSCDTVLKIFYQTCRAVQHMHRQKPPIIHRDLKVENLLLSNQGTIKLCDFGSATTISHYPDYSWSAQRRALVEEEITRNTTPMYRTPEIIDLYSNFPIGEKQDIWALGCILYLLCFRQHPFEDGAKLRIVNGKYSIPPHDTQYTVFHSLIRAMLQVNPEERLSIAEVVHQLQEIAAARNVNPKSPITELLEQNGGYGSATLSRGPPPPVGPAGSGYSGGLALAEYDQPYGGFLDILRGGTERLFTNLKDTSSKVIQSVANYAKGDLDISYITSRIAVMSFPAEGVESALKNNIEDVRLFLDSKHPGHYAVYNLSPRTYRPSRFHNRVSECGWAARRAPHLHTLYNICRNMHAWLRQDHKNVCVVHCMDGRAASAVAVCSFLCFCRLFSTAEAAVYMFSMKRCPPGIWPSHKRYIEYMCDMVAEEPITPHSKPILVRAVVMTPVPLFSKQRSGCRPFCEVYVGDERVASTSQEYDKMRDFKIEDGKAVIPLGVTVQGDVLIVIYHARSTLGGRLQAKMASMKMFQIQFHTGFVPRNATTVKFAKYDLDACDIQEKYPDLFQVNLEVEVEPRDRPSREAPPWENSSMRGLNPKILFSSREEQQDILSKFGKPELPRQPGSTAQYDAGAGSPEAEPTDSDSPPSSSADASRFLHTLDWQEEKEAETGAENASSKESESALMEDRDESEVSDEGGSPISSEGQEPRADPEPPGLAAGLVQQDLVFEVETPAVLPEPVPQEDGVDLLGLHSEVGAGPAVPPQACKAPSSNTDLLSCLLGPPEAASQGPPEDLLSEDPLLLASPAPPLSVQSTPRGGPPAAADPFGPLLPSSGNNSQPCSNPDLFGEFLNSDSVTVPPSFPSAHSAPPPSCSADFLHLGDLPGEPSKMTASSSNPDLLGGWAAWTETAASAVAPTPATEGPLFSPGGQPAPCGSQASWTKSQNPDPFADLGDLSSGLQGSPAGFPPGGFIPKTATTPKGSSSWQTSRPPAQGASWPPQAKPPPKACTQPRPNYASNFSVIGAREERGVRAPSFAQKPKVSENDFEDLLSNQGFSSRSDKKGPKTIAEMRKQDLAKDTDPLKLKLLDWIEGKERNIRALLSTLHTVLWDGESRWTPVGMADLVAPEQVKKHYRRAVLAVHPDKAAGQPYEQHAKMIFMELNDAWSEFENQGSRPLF
# Sequence of CSF1R (human) (P07333 whole entry, looked up): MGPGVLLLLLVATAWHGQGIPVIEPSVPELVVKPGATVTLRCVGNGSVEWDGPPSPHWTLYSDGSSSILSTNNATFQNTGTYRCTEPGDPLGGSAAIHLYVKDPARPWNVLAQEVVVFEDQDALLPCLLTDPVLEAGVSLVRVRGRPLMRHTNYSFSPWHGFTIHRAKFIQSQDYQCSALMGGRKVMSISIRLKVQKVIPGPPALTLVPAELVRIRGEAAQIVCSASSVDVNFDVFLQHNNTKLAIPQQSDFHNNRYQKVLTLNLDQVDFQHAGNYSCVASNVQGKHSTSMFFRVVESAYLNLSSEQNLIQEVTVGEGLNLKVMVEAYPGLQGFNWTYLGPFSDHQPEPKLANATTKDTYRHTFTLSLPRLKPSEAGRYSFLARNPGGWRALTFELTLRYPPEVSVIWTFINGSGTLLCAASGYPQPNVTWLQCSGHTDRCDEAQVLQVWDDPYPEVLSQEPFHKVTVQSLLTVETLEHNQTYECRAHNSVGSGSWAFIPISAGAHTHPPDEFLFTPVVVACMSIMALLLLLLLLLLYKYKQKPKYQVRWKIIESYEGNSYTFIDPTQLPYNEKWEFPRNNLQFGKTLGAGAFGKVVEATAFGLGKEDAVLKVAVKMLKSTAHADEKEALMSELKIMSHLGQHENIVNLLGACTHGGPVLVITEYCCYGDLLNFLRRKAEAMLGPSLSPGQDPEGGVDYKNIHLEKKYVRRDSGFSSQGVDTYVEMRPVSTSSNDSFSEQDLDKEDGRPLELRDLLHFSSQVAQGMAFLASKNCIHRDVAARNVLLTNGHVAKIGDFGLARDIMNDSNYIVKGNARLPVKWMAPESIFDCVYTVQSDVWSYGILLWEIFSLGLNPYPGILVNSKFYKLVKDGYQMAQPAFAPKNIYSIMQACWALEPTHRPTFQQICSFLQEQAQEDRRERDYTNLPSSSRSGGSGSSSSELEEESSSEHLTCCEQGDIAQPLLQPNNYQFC
# Sequence of EPHB4 (human) (P54760 whole entry, looked up): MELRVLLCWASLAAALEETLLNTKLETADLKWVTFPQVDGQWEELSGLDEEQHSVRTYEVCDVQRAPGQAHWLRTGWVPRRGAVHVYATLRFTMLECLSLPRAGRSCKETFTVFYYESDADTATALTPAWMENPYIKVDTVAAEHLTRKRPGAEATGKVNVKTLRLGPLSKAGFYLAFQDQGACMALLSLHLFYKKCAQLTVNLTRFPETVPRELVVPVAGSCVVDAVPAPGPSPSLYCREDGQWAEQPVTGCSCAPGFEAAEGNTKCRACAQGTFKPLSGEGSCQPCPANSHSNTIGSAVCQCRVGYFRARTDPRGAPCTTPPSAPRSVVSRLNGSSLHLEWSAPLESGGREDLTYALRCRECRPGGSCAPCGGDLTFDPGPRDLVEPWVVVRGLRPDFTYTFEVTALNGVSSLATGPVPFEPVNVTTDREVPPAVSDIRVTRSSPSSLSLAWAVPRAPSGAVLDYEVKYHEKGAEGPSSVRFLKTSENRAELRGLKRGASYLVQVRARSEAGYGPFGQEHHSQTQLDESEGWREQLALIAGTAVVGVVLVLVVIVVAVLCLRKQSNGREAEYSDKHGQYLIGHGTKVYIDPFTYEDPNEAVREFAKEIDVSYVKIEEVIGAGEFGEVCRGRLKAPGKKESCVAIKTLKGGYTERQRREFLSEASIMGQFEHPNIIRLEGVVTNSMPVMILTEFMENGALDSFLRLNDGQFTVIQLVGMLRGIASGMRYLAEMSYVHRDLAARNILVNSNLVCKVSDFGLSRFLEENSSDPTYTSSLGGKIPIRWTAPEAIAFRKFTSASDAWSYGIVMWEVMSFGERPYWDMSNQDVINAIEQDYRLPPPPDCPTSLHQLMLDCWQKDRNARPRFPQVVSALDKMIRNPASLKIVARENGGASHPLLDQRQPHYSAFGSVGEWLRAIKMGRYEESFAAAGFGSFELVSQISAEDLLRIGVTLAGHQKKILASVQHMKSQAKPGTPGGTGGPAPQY
# Sequence of LCK (human) (P06239 whole entry, looked up): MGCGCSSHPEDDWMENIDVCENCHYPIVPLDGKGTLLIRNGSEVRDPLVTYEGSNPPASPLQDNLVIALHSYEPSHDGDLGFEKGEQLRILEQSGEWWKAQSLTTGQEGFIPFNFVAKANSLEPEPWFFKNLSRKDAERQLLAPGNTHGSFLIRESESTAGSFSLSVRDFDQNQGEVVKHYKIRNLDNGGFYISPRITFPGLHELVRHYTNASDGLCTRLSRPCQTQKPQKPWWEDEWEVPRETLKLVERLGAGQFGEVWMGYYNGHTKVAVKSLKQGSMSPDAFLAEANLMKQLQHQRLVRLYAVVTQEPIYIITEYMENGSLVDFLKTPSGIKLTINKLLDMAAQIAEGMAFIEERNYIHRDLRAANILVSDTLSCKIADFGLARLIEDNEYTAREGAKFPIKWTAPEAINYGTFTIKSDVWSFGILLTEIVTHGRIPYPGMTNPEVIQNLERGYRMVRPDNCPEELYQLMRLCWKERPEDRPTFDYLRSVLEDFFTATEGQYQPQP
# Sequence of PAK7 (human) (Q9P286 whole entry, looked up): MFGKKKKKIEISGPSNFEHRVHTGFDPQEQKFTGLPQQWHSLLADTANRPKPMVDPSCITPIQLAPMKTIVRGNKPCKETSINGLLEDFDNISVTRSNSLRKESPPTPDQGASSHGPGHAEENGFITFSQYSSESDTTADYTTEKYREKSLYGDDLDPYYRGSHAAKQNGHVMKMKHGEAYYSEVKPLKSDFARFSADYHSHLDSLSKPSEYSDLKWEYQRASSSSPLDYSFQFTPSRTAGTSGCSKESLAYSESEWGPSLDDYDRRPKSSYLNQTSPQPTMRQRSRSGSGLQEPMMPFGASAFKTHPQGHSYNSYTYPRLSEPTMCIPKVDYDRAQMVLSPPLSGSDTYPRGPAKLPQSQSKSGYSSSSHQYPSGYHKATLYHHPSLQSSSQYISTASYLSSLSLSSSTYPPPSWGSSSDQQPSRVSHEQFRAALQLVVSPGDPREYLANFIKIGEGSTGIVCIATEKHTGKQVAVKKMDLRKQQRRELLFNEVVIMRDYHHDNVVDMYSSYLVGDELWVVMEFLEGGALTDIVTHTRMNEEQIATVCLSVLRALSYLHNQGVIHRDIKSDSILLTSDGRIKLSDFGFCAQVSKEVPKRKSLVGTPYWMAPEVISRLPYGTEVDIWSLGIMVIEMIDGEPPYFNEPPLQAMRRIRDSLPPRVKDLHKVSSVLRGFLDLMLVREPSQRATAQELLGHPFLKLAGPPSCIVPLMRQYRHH
# Sequence of PKMYT1 (human) (Q99640 whole entry, looked up): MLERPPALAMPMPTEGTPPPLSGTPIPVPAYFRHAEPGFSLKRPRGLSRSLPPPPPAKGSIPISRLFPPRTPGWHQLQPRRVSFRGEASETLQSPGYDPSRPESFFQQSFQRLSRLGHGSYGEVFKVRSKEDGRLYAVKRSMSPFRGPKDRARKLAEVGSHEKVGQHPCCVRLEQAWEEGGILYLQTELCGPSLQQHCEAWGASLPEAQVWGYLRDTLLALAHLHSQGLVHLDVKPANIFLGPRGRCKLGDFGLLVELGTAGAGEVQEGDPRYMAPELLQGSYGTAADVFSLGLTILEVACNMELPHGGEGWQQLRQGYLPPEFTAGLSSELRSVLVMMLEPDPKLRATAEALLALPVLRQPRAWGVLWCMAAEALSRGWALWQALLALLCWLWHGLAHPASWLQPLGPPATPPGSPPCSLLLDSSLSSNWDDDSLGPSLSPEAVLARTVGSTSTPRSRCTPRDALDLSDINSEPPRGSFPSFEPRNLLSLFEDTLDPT
SMILES,"kinase still bound, per cent of control (FLT1 (human)) [%]","kinase still bound, per cent of control (TEK (human)) [%]","kinase still bound, per cent of control (PIM1 (human)) [%]","kinase still bound, per cent of control (RPS6KA5 KD1 (human)) [%]","kinase still bound, per cent of control (PRKCE (human)) [%]","kinase still bound, per cent of control (AKT1 (human)) [%]","kinase still bound, per cent of control (LIMK1 (human)) [%]","kinase still bound, per cent of control (NEK2 (human)) [%]","kinase still bound, per cent of control (PIM2 (human)) [%]","kinase still bound, per cent of control (CSF1R (human)) [%]","kinase still bound, per cent of control (CSNK2A1 (human)) [%]","kinase still bound, per cent of control (GAK (human)) [%]","kinase still bound, per cent of control (CDK17 (human)) [%]","kinase still bound, per cent of control (MAPK7 (human)) [%]","kinase still bound, per cent of control (PRKCH (human)) [%]","kinase still bound, per cent of control (MKNK2 (human)) [%]","kinase still bound, per cent of control (PKMYT1 (human)) [%]","kinase still bound, per cent of control (NUAK1 (human)) [%]","kinase still bound, per cent of control (TAOK1 (human)) [%]","kinase still bound, per cent of control (PRKG2 (human)) [%]",also measured
CC[C@@H]1C(=O)N(C)c2cnc(Nc3ccc(C(=O)NC4CCN(C)CC4)cc3OC)nc2N1C1CCCC1,100,100,100,100,100,100,100,17,100,100,100,1.6,100,19,100,100,100,100,100,100,"kinase still bound, per cent of control (STK36 (human)): 100%; kinase still bound, per cent of control (ULK1 (human)): 100%; kinase still bound, per cent of control (PIM3 (human)): 100%; kinase still bound, per cent of control (LTK (human)): 24%; kinase still bound, per cent of control (EPHA8 (human)): 100%; kinase still bound, per cent of control (LCK (human)): 100%; kinase still bound, per cent of control [1]: 100%; kinase still bound, per cent of control (CSNK2A2 (human)): 100%; kinase still bound, per cent of control (NLK (human)): 100%; kinase still bound, per cent of control (PTK2 (human)): 2.4%; kinase still bound, per cent of control (MAP3K7 (human)): 100%; kinase still bound, per cent of control (EPHB1 (human)): 100%; kinase still bound, per cent of control (LYN (human)): 100%; kinase still bound, per cent of control (EPHB4 (human)): 100%; kinase still bound, per cent of control (PAK3 (human)): 100%; kinase still bound, per cent of control (PAK7 (human)): 100%; kinase still bound, per cent of control (MAPK8 (human)): 100%; kinase still bound, per cent of control (MAPK12 (human)): 100%; kinase still bound, per cent of control (GSK3B (human)): 100%"
O=C(O)c1ccc(Nc2ncc3c(n2)-c2ccc(Cl)cc2C(c2c(F)cccc2F)=NC3)cc1,12,3,71,99,72,100,85,73,36,38,29,49,100,100,100,84,65,67,71,96,"kinase still bound, per cent of control (STK36 (human)): 100%; kinase still bound, per cent of control (ULK1 (human)): 40%; kinase still bound, per cent of control (PIM3 (human)): 42%; kinase still bound, per cent of control (LTK (human)): 62%; kinase still bound, per cent of control (EPHA8 (human)): 99%; kinase still bound, per cent of control (FES (human)): 100%; kinase still bound, per cent of control (LCK (human)): 1.6%; kinase still bound, per cent of control [1]: 87%; kinase still bound, per cent of control (CAMK1D (human)): 98%; kinase still bound, per cent of control (NLK (human)): 82%; kinase still bound, per cent of control (PTK2 (human)): 23%; kinase still bound, per cent of control (MAP3K7 (human)): 80%; kinase still bound, per cent of control (EPHB1 (human)): 2.2%; kinase still bound, per cent of control (LYN (human)): 25%; kinase still bound, per cent of control (EPHB4 (human)): 11%; kinase still bound, per cent of control (PAK3 (human)): 52%; kinase still bound, per cent of control (PAK7 (human)): 93%; kinase still bound, per cent of control (MAPK8 (human)): 100%; kinase still bound, per cent of control (MAPK12 (human)): 97%"
Cc1ccc2nc(NCCN)c3ncc(C)n3c2c1,98,100,100,100,100,100,100,100,100,16,33,79,92,0.7,94,90,84,88,66,100,"kinase still bound, per cent of control (PIM3 (human)): 92%; kinase still bound, per cent of control (LTK (human)): 95%; kinase still bound, per cent of control (EPHA8 (human)): 100%; kinase still bound, per cent of control (FES (human)): 100%; kinase still bound, per cent of control (LCK (human)): 98%; kinase still bound, per cent of control (CSNK2A2 (human)): 86%; kinase still bound, per cent of control (CAMK1D (human)): 69%; kinase still bound, per cent of control (NLK (human)): 100%; kinase still bound, per cent of control (PTK2 (human)): 97%; kinase still bound, per cent of control (MAP3K7 (human)): 100%; kinase still bound, per cent of control (EPHB1 (human)): 100%; kinase still bound, per cent of control (LYN (human)): 100%; kinase still bound, per cent of control (EPHB4 (human)): 100%; kinase still bound, per cent of control (PAK3 (human)): 62%; kinase still bound, per cent of control (PAK7 (human)): 100%; kinase still bound, per cent of control (MAPK8 (human)): 66%; kinase still bound, per cent of control (MAPK12 (human)): 100%; kinase still bound, per cent of control (GSK3B (human)): 68%"
